# What was measured:
# [1] = system: HDF cells; experiment: Cell adherence test with HDF cells; format: cell-based, human; details: for CELL ADHESION [%]: peptide/BSA conjugates bound to polystyrene, approx. 35 nmol peptide per well, 1 hour at 37° C., fibronectin positive control, BSA negative control; for adherence promoting effect for HDF cells (in words): BSA conjugates
# Description: (§1) 50 μl each of the peptide/BSA conjugates or the peptides were placed, in different concentrations, in the wells of a 96-well flat-bottomed microtiter plate (DYNATECH). After drying for 2 hours at 37° C., unbound peptide/BSA conjugate or peptide is removed by washing with phosphate-buffered saline solution (PBS) several times. In order to prevent the non-specific adhesion of the cells to polystyrene, all the wells were subsequently saturated for 30 min. at 37° C. with heat-denatured BSA (2 mg/ml). Following that, it was once again washed with PBS.
# As a positive control for the adhesion capacity, bovine fibronectin (Paesel & Lorey, 1 mg/ml) was used, and heat-denatured BSA (2 mg/ml) as a negative control; this is not capable of influencing intercellular adhesion.
# (§2) The cell adherence test was performed with AKR-2B mouse fibroblasts (Shipley et al., Cancer Res. 44 (1984) 710-716) and human dermal fibroblasts (HDF, removed from the lower arm, 18th passage). AKR-2B cells were cultivated in McCoy's medium (10% calf serum), and HDF cells in Dulbecco's modified eagle medium (DMEM) in the presence of 10% foetal calf serum (FCS) and 1% streptomycin/penicillin. For the adherence test, the cells were washed twice with protein-free HYBRI-MAX™ (medium for culture of hybridoma cell types containing 1 mM Mn^2+ and 0.02% heat-denatured BSA) medium (SIGMA) and then taken up in Hybri-Max (1 mM Mn^2+, 0.02% heat-denatured BSA). In this way, it was largely ensured that neither protein components from the culture medium, nor serum components, such as fibronectin for example, could influence the adherence test. In each well of the microtiter plate previously filled with test substance (peptide concentration per well: approx. 35 nmol), 200 μl of the cell suspension taken up in HYBRI-MAX™ (medium for culture of hybridoma cell types containing 1 mM Mn^2+ and 0.02% heat-denatured BSA) (1 mM Mn^2+, 0.02% heat-denatured BSA) (1.5×10^5 cells/well) were pipetted and incubated for 1 hour in an incubator at 37° C., 5% CO2 atmosphere. After that, the supernatant was decanted off, and non-adhered cells were removed by washing with PBS. The adhered cells were fixed for 0.5 min with methanol and stained with the MERCK HEMACOLOR™ (colution for fast staining in microscopy) reagent kit in order to quantify the number of cells.
# [2] = system: HDF cells; experiment: Chemotaxis test using HDF cells (modified Boyden chambers); format: cell-based, human; details: 4 hours at 37° C., medium control deducted, Collagen 0.3 nmol/ml, Fibronectin 0.6 nmol/ml, peptides 1 μmol/ml
# Description: In addition to wound contraction, the epithelialisation of the wound as a result of the migration of cells from the edges of wounds plays a significant role in wound repair. Some selected peptides were investigated in chemotaxis tests in order to study their ability to simulate the migration of HDF cells. The test was conducted in accordance with Scharffetter-Kochanek et al. (J. Invest. Dermatol. 98 (1992) 3-11) in modified Boyden chambers. In the lower cavity of the Boyden chamber, 210 μl DMEM (control) or the potential chemoattractant taken up in the same volume of DMEM were placed. […] 2×10^5 cells were pipetted into the upper Boyden chamber (volume 810 μl). The incubation time was 4 hours at 37° C. The results for the peptides investigated are summed up in Tab. 5, with the figures for the medium control already having been deducted from these readings.
# [3] = system: AKR-2B cells; experiment: Cell adherence test, dilution series on AKR-2B cells (EC50); format: cell-based, mouse; details: for EC50 (semi-maximum cell adherence): peptide/BSA conjugates diluted in PBS, read off from curve
# Description: as §1, §2
# For some selected conjugates, dilution series were included in order to determine binding constants for AKR-2B cells. For this purpose, the peptide/BSA conjugates were diluted in PBS, and 50 μl each of these dilutions were placed in the wells of a microtiter plate. Incubation and all the other steps were performed according to the method described above. After the readings had been plotted graphically, the difference between the figure for the maximum cell adherence and the zero value could be formed, and the EC50 values shown in Tab. 3 as a measure of the semi-maximum cell adherence could be read off from the line of the curve.
# In order to establish binding constants for the peptides of the invention, dose effectiveness curves on AKR-2B cells were recorded for some selected conjugates. The EC50 values shown in Tab. 3 as a measure of semi-maximum cell adherence were read off from the curve concerned (plotted: cell adherence versus peptide concentration). Low EC50 values mean that only small quantities of the substances need to be used in order to achieve a semi-maximum effect, in other words that the substance is very effective.
# [4] = system: AKR-2B cells; experiment: Competitive inhibition test (adherence of AKR-2B cells to BSA/AP#2 conjugate); format: cell-based, mouse; details: for Inhibition (maximum measured reduction in cell adherence): soluble peptide 1 μmol/well, AKR-2B cells, plates coated with BSA/AP#2 conjugate 10 nmol/well; for inhibitory effect on the attachment of AKR-2B cells (in words): soluble peptides, competition with BSA/AP#2 conjugate
# Description: Via the specific saturation of surface receptors (shown schematically in FIG. 3E), it is possible, in the case of soluble peptides, to measure an inhibitory effect on the adhesion of test cells (AKR-2B). In the experiment described here, a selected peptide/BSA conjugate corresponding to a peptide concentration of 10 nmol/well was placed in the microtiter plates and incubated for 2 hours at 37° C. Unsaturated binding sites in the culture vessel were subsequently saturated for 30 minutes with heat-denatured BSA (2 mg/ml). The peptides were dissolved in HYBRI-MAX™ (medium for culture of hybridoma cell types containing 1 mM Mn^2+ and 0.02% heat-denatured BSA) Medium (0.02 % BSA, 1 mM Mn^2+), and the pH was adjusted to a level of 7.2 to 7.4. Following that, the peptide solutions were treated with Reductacryl®. […] From these stock solutions, dilution series were prepared in HYBRI-MAX™ (medium for culture of hybridoma cell types containing 1 mM Mn^2+ and 0.02% heat-denatured BSA) medium (1 mM Mn^2+, 0.02% heat-denatured BSA), and added to the AKR-2B cells taken up in the same medium. After that, the specimens were incubated for 10 minutes at 37° C., while being gently shaken. The cells pre-treated in this way (1.5×10^5 /200 μl) were subsequently transferred to the conjugate-coated microtiter plates. The further treatment of the test plates was performed by analogy with 4.1.
# The inhibitory effect of the peptides is shown in Tab. 4 as the difference between the 100% figure (control, with no peptide in the medium), and the maximum measured reduction in cell adherence at a peptide concentration of 1 μmol/well. A figure of 100% would mean complete inhibition, i.e. the maximum effect.
# For the peptides of the invention available in soluble form, i.e. in a form not bound to carrier molecules, it is possible to detect adhesion inhibiting properties which come about as a result of the specific blockade of epitopes on surface receptors of the test cells (cf. FIG. 3E).
# The AP#2 peptide was selected as an internal standard. Compared to most of the other peptides of the invention (cf. Tab. 2), the adhesion promoting properties of BSA/AP#2 conjugates lie within a region of semi-maximum effectiveness. Experience has shown that, in order to detect inhibitory effects, it is favourable to measure in a range of less than optimum effect, since otherwise weak inhibitory effects might not be detected.
Substance,CELL ADHESION [%] [1] [%],adherence promoting effect for HDF cells (in words) [1],also measured
A-E-L-L-D-G-(C) (AELLDG; C-terminal Cys) [AP#24],32.7,–,–
"Collagen: collagen I, positive control in chemotaxis test",–,–,Avge. no. of cells per field of vision [2]: 45.7; Chemotactic migration [%] [2]: 100.0%
E-L-L-D-G-(C) [AP#25],47.7,–,EC50 / binding constant on AKR-2B cells (in words) ([3]; peptide/BSA conjugates): better binding constant was obtained compared to the control; EC50 (semi-maximum cell adherence) [3]: 42.0 pmol/well; Inhibition (maximum measured reduction in cell adherence) [4]: 18.1%; inhibitory effect on the attachment of AKR-2B cells (in words) [4]: slightly less efficiency
"FN: bovine fibronectin (Paesel & Lorey, 1 mg/ml), positive control for the adhesion capacity",100.0,–,–
Fibronectin,–,–,Avge. no. of cells per field of vision [2]: 43.9; Chemotactic migration [%] [2]: 96.0%
G-G-G-A-G-G-G-S-S-G-S-G-(C) (GGGAGGGSSGSG; C-terminal Cys) [AP#11],30.5,significant adhesion modifying effect,–
G-G-G-S-G-G-G-S-S-G-S-G-(C) (GGGSGGGSSGSG; C-terminal Cys) [AP#10],27.5,significant adhesion modifying effect,–
G-I-V-R-T-P-L (GIVRTPL) [AP#9],93.0,good effectiveness,EC50 (semi-maximum cell adherence) [3]: 50.7 pmol/well
G-I-V-R-T-P-L-A-E-L (GIVRTPLAEL) [AP#8],78.2,good effectiveness,EC50 (semi-maximum cell adherence) [3]: 41.7 pmol/well
"G-R-G-D-S-(C) [IVA1b, reference compound]",93.8,similarly good to those of fibronectin,–
"G-T-P-G-P-Q-G-I-A-G-Q-R-G-V-V-(C) (GTPGPQGIAGQRGVV; C-terminal Cys) [P-15, adhesion promoting fragment of the α-1(I) chain of collagen, reference compound]",62.1,slightly less effective,–
G-V-V-S-T-P-L-V-N-L-I-N-G-(C) [AP#5],53.2,–,–
I-V-R-T-P--- -A-E-L-L-D-G-(C) (AELLDG; N-terminal IVRTP; C-terminal Cys) [AP#14],27.0,–,–
I-V-R-T-P-L-A-E-L-L-D-G-(C) [AP#13],37.3,–,–
L-A-E-L-L-D-G-(C) (LAELLDG; C-terminal Cys) [AP#21],43.5,–,–
L-A-E-L-L-D-G-E-(C) [AP#20],54.1,increased adherence promoting effect,–
L-A-E-L-L-D-G-E-G-(C) [AP#19],51.9,increased adherence promoting effect,–
L-A-E-L-L-D-G-E-G-Q-(C) [AP#18],11.9,only have a basal adhesion promoting effect,–
L-A-E-L-L-E-G-(C) (LAELLEG; C-terminal Cys) [AP#22],18.8,somewhat reduced adherence efficacy,–
L-A-E-L-L-L-G-(C) (LAELLLG; C-terminal Cys) [AP#23],26.4,somewhat reduced adherence efficacy,–
L-D-G-(C) [AP#27],23.3,significant adhesion promoting effect,–
L-L-D-G-(C) [AP#26],31.3,–,–
Q-I-D-F-N-R-L-F-T-H-P-V-T-D-L-F-D-P-(C) [AP#1],72.5,Particularly good effectiveness,EC50 (semi-maximum cell adherence) [3]: 32.9 pmol/well
R-T-P--- -A-E-L-L-D-G-(C) [AP#16],21.4,–,–
R-T-P-L-A-E-L-L-D-G-(C) [AP#15],28.5,–,–
"S-V-T-L-G-(C) [SVTLG, reference compound]",72.1,slightly less effective,EC50 (semi-maximum cell adherence) [3]: 64.5 pmol/well
T-V-L-R-N-I-Q-E-L-L-D-G-E-(C) [AP#12],74.2,–,EC50 (semi-maximum cell adherence) [3]: 29.0 pmol/well
"V-T-G-R-G-D-S-P-A-(C) [IVA1, reference compound]",93.9,similarly good to those of fibronectin,EC50 (semi-maximum cell adherence) [3]: 0.73 pmol/well; Inhibition (maximum measured reduction in cell adherence) [4]: 2.6%; inhibitory effect on the attachment of AKR-2B cells (in words) [4]: virtually no effect

# — patent publication US5994311A, “Cell adhesion peptides for modifying the adhesion capacity of eukaryotic cells between each other” (Beiersdorf AG, priority 1994, dated 1999)
